Assay results: the NIST ThermoML archive (doi:10.1016/j.jct.2012.11.010)
Numbers after ± are expanded uncertainties.

Conditions: Liquid; for viscosity: 101.33 kPa, Falling or rolling sphere viscometry; for mass density: Vibrating tube method

CCCC[N+]1(C)CCCC1.FC(F)(F)C(F)(F)[P-](F)(F)(F)(C(F)(F)C(F)(F)F)C(F)(F)C(F)(F)F
Conditions | viscosity [mPa·s]
293.15 K | 333.79 ± 22
303.15 K | 179.86 ± 8.9
313.15 K | 106 ± 4
323.15 K | 68.08 ± 2.1
333.15 K | 45.37 ± 1.4
343.15 K | 31.9 ± 0.99
353.15 K | 23.42 ± 0.72
363.15 K | 17.58 ± 0.54
373.15 K | 13.71 ± 0.42

Conditions | mass density [kg/m3]
293.17 K, 5000 kPa | 1606.7 ± 16
293.17 K, 10000 kPa | 1610.2 ± 16
293.17 K, 15000 kPa | 1614.1 ± 16
293.17 K, 20000 kPa | 1618 ± 16
293.17 K, 25000 kPa | 1621.7 ± 16
293.18 K, 2500 kPa | 1604.9 ± 16
293.19 K, 100 kPa | 1603.7 ± 16
293.19 K, 500 kPa | 1604 ± 16
293.19 K, 1000 kPa | 1603.9 ± 16
303.18 K, 100 kPa | 1592.8 ± 16
303.19 K, 1000 kPa | 1593.1 ± 16
303.2 K, 500 kPa | 1593.1 ± 16
303.25 K, 10000 kPa | 1599.5 ± 16
303.25 K, 20000 kPa | 1607.6 ± 16
303.25 K, 25000 kPa | 1611.4 ± 16
303.26 K, 2500 kPa | 1593.9 ± 16
303.26 K, 5000 kPa | 1595.8 ± 16
303.26 K, 15000 kPa | 1603.6 ± 16
313.19 K, 10000 kPa | 1589.1 ± 16
313.2 K, 100 kPa | 1581.9 ± 16
313.2 K, 500 kPa | 1582.3 ± 16
313.2 K, 1000 kPa | 1582.3 ± 16
313.2 K, 5000 kPa | 1585.3 ± 16
313.2 K, 20000 kPa | 1597.4 ± 16
313.21 K, 2500 kPa | 1583.3 ± 16
313.21 K, 15000 kPa | 1593.3 ± 16
313.21 K, 25000 kPa | 1601.4 ± 16
323.14 K, 100 kPa | 1571 ± 16
323.14 K, 500 kPa | 1571.4 ± 16
323.14 K, 2500 kPa | 1572.5 ± 16
323.14 K, 10000 kPa | 1578.5 ± 16
323.14 K, 15000 kPa | 1582.9 ± 16
323.14 K, 20000 kPa | 1587.2 ± 16
323.14 K, 25000 kPa | 1591.3 ± 16
323.15 K, 1000 kPa | 1571.5 ± 16
323.15 K, 5000 kPa | 1574.6 ± 16
333.17 K, 100 kPa | 1560.4 ± 16
333.17 K, 500 kPa | 1560.8 ± 16
333.17 K, 1000 kPa | 1560.9 ± 16
333.17 K, 5000 kPa | 1564.2 ± 16
333.18 K, 2500 kPa | 1562 ± 16
333.18 K, 10000 kPa | 1568.2 ± 16
333.18 K, 15000 kPa | 1572.7 ± 16
333.18 K, 20000 kPa | 1577.2 ± 16
333.18 K, 25000 kPa | 1581.4 ± 16
343.16 K, 100 kPa | 1549.9 ± 16
343.17 K, 500 kPa | 1550.4 ± 16
343.18 K, 1000 kPa | 1550.5 ± 16
343.19 K, 2500 kPa | 1551.6 ± 16
343.2 K, 5000 kPa | 1553.9 ± 16
343.2 K, 10000 kPa | 1558.1 ± 16
343.2 K, 15000 kPa | 1562.8 ± 16
343.2 K, 20000 kPa | 1567.4 ± 16
343.21 K, 25000 kPa | 1571.7 ± 16
353.17 K, 100 kPa | 1539.5 ± 15
353.17 K, 500 kPa | 1540.1 ± 15
353.17 K, 5000 kPa | 1543.8 ± 15
353.18 K, 1000 kPa | 1540.3 ± 15
353.18 K, 2500 kPa | 1541.4 ± 15
353.18 K, 15000 kPa | 1553 ± 16
353.19 K, 10000 kPa | 1548.2 ± 16
353.19 K, 20000 kPa | 1557.7 ± 16
353.19 K, 25000 kPa | 1562.2 ± 16

CCCCCCCCCCCCCC[P+](CCCCCC)(CCCCCC)CCCCCC.FC(F)(F)C(F)(F)[P-](F)(F)(F)(C(F)(F)C(F)(F)F)C(F)(F)C(F)(F)F
Conditions | viscosity [mPa·s]
293.15 K | 470.83 ± 36
303.15 K | 259.01 ± 15
313.15 K | 155.29 ± 7.2
323.15 K | 94.33 ± 3.4
333.15 K | 65 ± 2
343.15 K | 42.67 ± 1.3
353.15 K | 30.35 ± 0.94
363.15 K | 22.81 ± 0.71
373.15 K | 17.53 ± 0.54

Conditions | mass density [kg/m3]
293.2 K, 100 kPa | 1185.7 ± 12
293.21 K, 500 kPa | 1185.9 ± 12
293.22 K, 1000 kPa | 1185.9 ± 12
293.22 K, 2500 kPa | 1186.7 ± 12
293.22 K, 5000 kPa | 1188.3 ± 12
293.22 K, 10000 kPa | 1191.3 ± 12
293.22 K, 25000 kPa | 1201.2 ± 12
293.23 K, 15000 kPa | 1194.7 ± 12
293.23 K, 20000 kPa | 1198 ± 12
303.19 K, 100 kPa | 1177.4 ± 12
303.19 K, 500 kPa | 1177.7 ± 12
303.19 K, 1000 kPa | 1177.7 ± 12
303.21 K, 2500 kPa | 1178.5 ± 12
303.22 K, 5000 kPa | 1180.1 ± 12
303.22 K, 10000 kPa | 1183.3 ± 12
303.23 K, 15000 kPa | 1186.8 ± 12
303.23 K, 20000 kPa | 1190.2 ± 12
303.25 K, 25000 kPa | 1193.5 ± 12
313.15 K, 100 kPa | 1169.1 ± 12
313.17 K, 500 kPa | 1169.4 ± 12
313.17 K, 1000 kPa | 1169.4 ± 12
313.17 K, 2500 kPa | 1170.3 ± 12
313.17 K, 5000 kPa | 1172 ± 12
313.17 K, 10000 kPa | 1175.4 ± 12
313.17 K, 15000 kPa | 1179.1 ± 12
313.17 K, 20000 kPa | 1182.6 ± 12
313.17 K, 25000 kPa | 1186 ± 12
323.14 K, 15000 kPa | 1171.1 ± 12
323.15 K, 500 kPa | 1161 ± 12
323.15 K, 1000 kPa | 1161.1 ± 12
323.15 K, 5000 kPa | 1163.8 ± 12
323.15 K, 10000 kPa | 1167.3 ± 12
323.15 K, 20000 kPa | 1174.7 ± 12
323.16 K, 100 kPa | 1160.6 ± 12
323.16 K, 2500 kPa | 1162 ± 12
323.16 K, 25000 kPa | 1178.3 ± 12
333.11 K, 100 kPa | 1152.6 ± 12
333.12 K, 500 kPa | 1152.9 ± 12
333.12 K, 1000 kPa | 1153 ± 12
333.12 K, 2500 kPa | 1154 ± 12
333.12 K, 10000 kPa | 1159.5 ± 12
333.13 K, 5000 kPa | 1156.8 ± 12
333.13 K, 15000 kPa | 1163.4 ± 12
333.13 K, 25000 kPa | 1171 ± 12
333.14 K, 20000 kPa | 1167.2 ± 12
343.07 K, 500 kPa | 1145 ± 12
343.07 K, 1000 kPa | 1145.1 ± 12
343.08 K, 2500 kPa | 1146.1 ± 12
343.08 K, 10000 kPa | 1151.9 ± 12
343.08 K, 15000 kPa | 1156 ± 12
343.09 K, 5000 kPa | 1148.1 ± 12
343.09 K, 25000 kPa | 1163.7 ± 12
343.1 K, 20000 kPa | 1159.9 ± 12
343.13 K, 100 kPa | 1144.5 ± 11
353.2 K, 100 kPa | 1136.5 ± 11
353.22 K, 500 kPa | 1137 ± 11
353.22 K, 2500 kPa | 1138.2 ± 11
353.22 K, 5000 kPa | 1140.2 ± 11
353.23 K, 1000 kPa | 1137.1 ± 11
353.23 K, 10000 kPa | 1144.2 ± 11
353.23 K, 15000 kPa | 1148.4 ± 12
353.25 K, 20000 kPa | 1152.5 ± 12
353.25 K, 25000 kPa | 1156.4 ± 12
